Assay results reported in US5719151A, “Substituted benzene compounds” (priority 1990, dated 1998).

How the values were obtained:
[1] = target: T1, poly(ADP-ribose)polymerase (Homo sapiens, UniProt P09874); assay: Determination of inhibitory effect on poly(ADP-ribose)polymerase (enzyme activity, Ki, Km); format: biochemical; details: for Ki: poly(ADP-ribose)polymerase, read-out: Ki (Inhibition Constant); for inhibition at 5 µM / inhibition at 1 µM / inhibition at 2.5 µM: read-out: Inhibitor Activity (%)
T1 sequence (P09874 whole entry): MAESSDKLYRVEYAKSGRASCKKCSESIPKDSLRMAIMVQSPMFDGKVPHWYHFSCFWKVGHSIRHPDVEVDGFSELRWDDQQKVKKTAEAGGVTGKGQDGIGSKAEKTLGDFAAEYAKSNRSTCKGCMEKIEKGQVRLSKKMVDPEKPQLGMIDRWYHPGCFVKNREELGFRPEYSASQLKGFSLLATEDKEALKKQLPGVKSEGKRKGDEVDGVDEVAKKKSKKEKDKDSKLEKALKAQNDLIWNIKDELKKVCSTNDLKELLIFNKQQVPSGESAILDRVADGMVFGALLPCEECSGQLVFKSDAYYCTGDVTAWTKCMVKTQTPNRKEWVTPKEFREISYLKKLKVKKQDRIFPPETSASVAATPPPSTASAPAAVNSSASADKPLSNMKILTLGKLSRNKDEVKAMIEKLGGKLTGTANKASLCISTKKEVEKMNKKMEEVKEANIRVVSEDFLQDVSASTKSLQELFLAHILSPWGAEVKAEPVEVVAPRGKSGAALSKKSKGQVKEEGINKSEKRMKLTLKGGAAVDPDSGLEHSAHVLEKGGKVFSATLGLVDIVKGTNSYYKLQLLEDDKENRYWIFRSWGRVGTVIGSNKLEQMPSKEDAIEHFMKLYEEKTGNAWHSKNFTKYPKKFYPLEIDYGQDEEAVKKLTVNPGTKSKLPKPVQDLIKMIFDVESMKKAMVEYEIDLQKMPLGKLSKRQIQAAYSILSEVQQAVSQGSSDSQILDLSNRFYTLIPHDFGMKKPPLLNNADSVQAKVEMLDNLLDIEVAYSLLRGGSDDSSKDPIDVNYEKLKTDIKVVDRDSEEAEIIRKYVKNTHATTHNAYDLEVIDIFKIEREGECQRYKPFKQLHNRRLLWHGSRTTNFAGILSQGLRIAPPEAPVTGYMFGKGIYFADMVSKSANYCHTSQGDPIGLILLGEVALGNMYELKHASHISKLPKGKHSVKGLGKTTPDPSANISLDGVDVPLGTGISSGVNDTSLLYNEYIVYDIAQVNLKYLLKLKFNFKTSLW
Description: The enzyme activity was assayed by standard procedures (Murray, B. et al., Mutation Research (1986) 165:191-198). This reference also describes the estimation of the Km (Michaelis Constant) values. The estimation of the Ki (inhibitory constant) values was performed by calculating the Km value in the presence or absence of known concentrations of the enzyme inhibitor. Standard biochemical calculations were then used to calculate the Ki value. The smaller K1 values indicate stronger inhibition. The degree of enzyme inhibition shown in the Table was estimated by measuring the enzyme activity in the presence and absence of the indicated concentrations of inhibitor.

[2] = system: nuclear poly(ADP-Ribose)polymerase; details: Oikawa 1980; Lindahl-Kiessling & Shall 1987; cited from earlier work
[3] = target: T1, poly(ADP-ribose)polymerase; details: Farzeneh 1988, cited from earlier work
[4] = target: T1, poly(ADP-ribose)polymerase; assay: Formation of covalent compounds (with the enzyme); format: biochemical; details: for covalent compound with the enzyme: specific covalent inhibition
[5] = system: Trypanosoma brucei rhodesiense; assay: Growth of Trypanosoma brucei rhodesiense in axenic culture (growth inhibition); format: cell-based
Description: 1. TRYPANOSOMES: Stabilates of two clones, GUP 2889 and GUP 2814 were used.
Prior to propagation in vitro cell free culture conditions the parasites from stabilates were expanded in CD1 (8-9 week old) female mice. Infected mouse blood obtained by cardiac puncture in EMEM* with 20 U/ml heparin was used for the preparation of blood smears for immunofluorescence analysis.
Antibody mediated lysis of a specific VAT of bloodstream form trypanosomes was performed by incubating an appropriate aliquot of a recently prepared trypanosome suspension at room temperature for 1 hour, in appropriately diluted specific antibody and guinea pig complement. The trypanosomes were observed and counted with inverted phase-contrast microscopy at a magnification of 150× to check for viability and to observe lysed trypanosomes, which appeared stumpy and vacuolated.
Cultures were initiated with aliquots of the above prepared trypanosome suspension. Duplicate T25 flasks, with 10 ml of medium were prepared for each experimental parameter examined. In each experiment the trypanosome density was determined at the initiation of the culture and at the end of the axenic culture period (usually after 18-24 hours) using a Neubaurer haemocytometer.
The instantaneous rate of switching/cell/generation, σi, has been calculated. These values of σ are estimates of the per capita rate for switching to minor VATs. However, these estimates have been made in populations manipulated to consist of a major VAT, the prevalence of which is much higher than that of minor VATs; switching from minor to major VATs has therefore been assumed to be negligible, as has interswitching between minor VATs. Growth rates, r, have been expressed as population doubling times Td, where Td=loge2/r. Switching rates values are presented in the tables as finite, of, rate estimates.
Two clones of Trypanosoma brucei rhodesiense, GUP 2889 and […] were initiated in culture with viable trypanosomes after in vitro trypanolysis of heterotype VAT 1.22 with GUPM 27.1 monoclonal antibody. Viable populations of these trypanosomes were incubated with various concentrations of the poly(ADP-Ribose)polymerase inhibitors. The effect of each concentration of inhibitor was tested in duplicate in T25 culture flasks set up for the axenic culture inhibition experiments. Growth was monitored after 24 hours of incubation at 37° C. in 4-5% CO2 in air. Relative growth inhibition and frequency of antigenic switching of were calculated.
In this assay a continuously growing bloodstream form trypanosome population was incubated in serial inhibitor dilutions in T25 culture flasks using an inoculum of 2×10^4 ·1×10^5 trypanosomes per ml. After an incubation period of 24-48 hours in axenic culture at 37° C. in a 4-5% CO2 incubator, trypanosomes were counted using a haemocytometer and growth inhibition was determined based on the number of generations (kt) of inhibitor treated cultures compared to controls. […] Growth is reduced by up to 17% when 3-N-formylluminol(3-N-FL) is present in the concentration range of 50-400 μM, Table 7.

[6] = target: T1, poly(ADP-ribose)polymerase; details: X-ray or bleomycin exposure; cited from earlier work
[7] = system: NC(=O)c1ccc[n+]([C@@H]2O[C@H](COP(=O)([O-])OP(=O)(O)OC[C@H]3O[C@@H](n4cnc5c(N)ncnc54)[C@H](O)[C@@H]3O)[C@@H](O)[C@H]2O)c1; assay: Determination of inhibitory effect on poly(ADP-ribose)polymerase (enzyme activity, Ki, Km); format: biochemical; details: other: same assay as Table 5

Q: For `CC(=O)Nc1cccc(C(N)=O)c1` [3-acetylaminobenzamide, reference compound], which Ki [1] is on record?
A: 3.2 ± 0.41 µM

Q: For `NC(=O)c1cccc(N)c1` [3-aminobenzamide], which “spontaneous sister chromatid exchanges” value [2] is on record?
A: large increase in spontaneous sister chromatid exchanges

Q: Which “integration of foreign DNA into the genome” value ([3]; non-homologous/illegitimate DNA recombination) does the source give for `COc1cccc(C(N)=O)c1` [3-methoxybenzamide] here?
A: blocked the integration of foreign DNA into the genome

Q: What about the “uptake and expression of foreign DNA” value ([3]; introduced via plasmids) of the same compound?
A: not affected

Q: Which Ki [1] does the source give for `CCC(=O)Nc1cccc(C(N)=O)c1` [3-propionylaminobenzamide, reference compound] here?
A: 2.49 ± 0.3 µM

Q: Which “covalent compound with the enzyme” value [4] does the source give for `C=CC(=O)Nc1cccc(C(N)=O)c1` [Compound 4, 3-propenoylaminobenzamide] here?
A: act by forming a covalent compound with the enzyme specifically and thus inhibit the enzyme

Q: For `NC(=O)c1cccc(NC(=O)CCCl)c1` [Compound 7], which “covalent compound with the enzyme” value [4] is on record?
A: act by forming a covalent compound with the enzyme specifically and thus inhibit the enzyme

Q: Which inhibition at 5 µM [1] does the source give for `NC(=O)Nc1cccc(C(N)=O)c1` [Compound 8, 3-ureidobenzamide] here?
A: 61%

Q: For `CNC(=O)Nc1cccc(C(N)=O)c1` [Compound 9, 3-methylureidobenzamide], which inhibition at 5 µM [1] is on record?
A: 61%

Q: With `C=CC(=O)Nc1cccc(C(=O)O)c1` [Compound 12, 3-propenoylaminobenzoic acid] as the compound, how does the “enzyme inhibition (in words)” value [1] read?
A: not enzyme inhibitors

Q: What about the “ability to form covalent compounds” value [4] of the same compound?
A: form covalent compounds

Q: For `NC(=O)c1cccc(NC(=O)CCl)c1` [Compound 14, 3-chloroacetylaminobenzamide], which “covalent compound with the enzyme” value [4] is on record?
A: act by forming a covalent compound with the enzyme specifically and thus inhibit the enzyme

Q: With `NC(=O)c1cccc(NC(=O)CBr)c1` [Compound 15, 3-bromoacetylaminobenzamide] as the compound, how does the “covalent compound with the enzyme” value [4] read?
A: act by forming a covalent compound with the enzyme specifically and thus inhibit the enzyme

Q: Which “covalent compound with the enzyme” value [4] does the source give for `NC(=O)c1cccc(NC(=O)CCBr)c1` [Compound 16] here?
A: act by forming a covalent compound with the enzyme specifically and thus inhibit the enzyme

Q: For `CN(N=O)C(=O)Nc1cccc(C(N)=O)c1` [Compound 19, 3(N-methyl,N-nitroso ureido)benzamide], which “covalent compound with the enzyme” value [4] is on record?
A: act by forming a covalent compound with the enzyme specifically and thus inhibit the enzyme

Q: With `CN(N=O)C(=O)Nc1ccc(C(N)=O)cc1` [Compound 20, 4(N-methyl,N-nitroso ureido)benzamide] as the compound, how does the “enzyme inhibition (in words)” value [1] read?
A: not enzyme inhibitors

Q: And the “ability to form covalent compounds” value [4]?
A: form covalent compounds

Q: Which “enzyme inhibition (in words)” value [1] does the source give for `CCOC(=O)c1cccc(NC(=O)N(C)N=O)c1` [Compound 21, Ethyl,3-(N-methyl,N-nitrosoureido)benzoate] here?
A: not enzyme inhibitors

Q: And the “ability to form covalent compounds” value [4]?
A: form covalent compounds

Q: For `O=CNc1cccc2c(=O)[nH][nH]c(=O)c12` [Compound 22, 5-formylamino-2,3-dihydro-1,4-phthalazinedione], which inhibition at 1 µM [1] is on record?
A: 54%

Q: What about the inhibition at 2.5 µM [1] of the same compound?
A: 71%

Q: What about the Ki [1] of the same compound?
A: 0.518 ± 0.04 µM

Q: And the “growth reduced by up to” value ([5]; 50-400 μM)?
A: up to 17%

Q: And the activity at 50 µM ([5]; Trypanosoma brucei, RHODESIENSE, 50 μM, n = 8, control 1.00, read-out: Relative Growth Rate (S.D., n))?
A: 121 ± 13%

Q: What about the activity at 100 µM ([5]; Trypanosoma brucei, RHODESIENSE, 100 μM, n = 8, control 1.00, read-out: Relative Growth Rate (S.D., n)) of the same compound?
A: 91 ± 22%

Q: And the activity at 250 µM ([5]; Trypanosoma brucei, RHODESIENSE, 250 μM, n = 8, control 1.00, read-out: Relative Growth Rate (S.D., n))?
A: 83 ± 42%

Q: What about the activity at 400 µM ([5]; Trypanosoma brucei, RHODESIENSE, 400 μM, n = 4, control 1.00, read-out: Relative Growth Rate (S.D., n)) of the same compound?
A: 85 ± 4%

Q: With `N=C(N)Nc1cccc(C(N)=O)c1` [Compound 26, 3-(guanidino)benzamide] as the compound, how does the inhibition at 5 µM [1] read?
A: 32%

Q: Which inhibition at 1 µM [1] does the source give for `O=c1[nH]nc(O)c2cccc(O)c12` [Compound 27, 1,5-dihydroxy-3-hydro-4-phthalazinone] here?
A: 47%

Q: What about the inhibition at 2.5 µM [1] of the same compound?
A: 71%

Q: And the inhibition at 5 µM [1]?
A: 82%

Q: Which “recovery of the damaged cells” value [6] does the source give for `NC(=O)c1cccnc1` [nicotinamide] here?
A: inhibit recovery of the damaged cells

Q: For “poly(ADP-ribose)polymerase (Homo sapiens)”, which Km [7] is on record?
A: 100 ± 13.7 µM
